EP4371586B1, “MULTIFUNCTIONAL CHITOSAN COMPOSITES FOR BONE DEFECT FILLING AND BONE TISSUE REGENERATION AND METHODS FOR OBTAINING THEM” (Siec Badawcza Lukasiewicz - Instytut Ceramiki i Materialow …, priority 2022, dated 2024)
Ends that are not written are not given here. Peptide text beside a SMILES is read from it.

What was measured:
[1] = tested on: Staphylococcus aureus PCM 2602; assay: MIC by microdilution method (CLSI M07-A9); format: cell-based; details: 24 hours at 37 °C, BHI medium, range 3.125 - 250 µg/ml
Description: The antimicrobial properties of the peptide were tested based on Clinical and Laboratory Standards Institute (CLSI) guidelines according to CLSI M07-A9 2012 using the microdilution method. Two bacterial pathogens were used for the study: Gram-positive Staphylococcus aureus PCM 2602 and Gram-negative Pseudomonas aeruginosa PCM 2563.
The bacterial inoculum for the experiment was prepared by direct inoculation of Brain-Heart Infusion medium (BHI) with bacteria from a 24-hour culture on solid medium. The density of the suspension was 0.5 on the McFarland scale. The peptide concentration analysed : 3.125 - 250 µg/ml . Serial dilutions were performed in a 96-well, flat-bottomed, hydrophobic cell culture plate using BHI liquid medium. Then the previously prepared bacterial suspension was added. The final number of pathogens in each well was approximately 5 × 10^5 CFU/ml (Colony Forming Units per millilitre). Microplates were incubated for 24 hours at 37 °C under aerobic conditions. The minimum inhibitory concentration (MIC) for a peptide was defined as the lowest concentration of peptide in a well where no bacterial growth was observed. All experiments were performed in triplicate. Table 3. Minimum microbial growth inhibitory concentration values for peptide ug46 against the bacteria S. aureus PCM 2602 and P. aeruginosa PCM 2563.

[2] = tested on: hFOB human osteoblast cell line; assay: WST-1 proliferation assay of peptides, indirect method per ISO 10993-5; format: cell-based; details: % of proliferation of control cells
Description: Cytotoxicity was tested by an indirect method based on the guidelines in ISO 10993- 5 on the hFOB human osteoblast cell line (ATCC) using the LDH assay (Roche). The results presented were averaged from two technical repeats and presented as % relative to control cells treated with 1% Triton X- 100 solution. proliferation was tested by an indirect method based on the guidelines in ISO 10993- 5 on the hFOB human osteoblast cell line (ATCC) using the WST-1 assay (Abcam). The results shown were averaged from two technical repeats and presented as % in relation to control cells cultured without added peptides.
Proliferation and cytotoxicity data were analysed and visualised using GraphPad Prism 8 software (GraphPad Software, USA). Statistical analysis was performed using the Kruskal- Wallis test (p = 0.05). In the next step, the Benjamini, Krieger and Yekutielli multiple comparisons test was performed to control the false discovery rate (p = 0.05). Comparisons were made between results obtained for individual peptide concentrations.

Question: With `CC[C@H](C)[C@H](NC(=O)CNC(=O)[C@H](C)NC(=O)[C@H](CCC(N)=O)NC(C)=O)C(=O)N[C@H](C(=O)N[C@H](C(=O)N1CCC[C@H]1C(=O)N[C@@H](CC(C)C)C(=O)NCC(=O)N[C@@H](CC(C)C)C(=O)NCC(=O)N[C@@H](CC(C)C)C(=O)N[C@@H](CC(C)C)C(=O)N[C@@H](CCCCN)C(=O)N[C@@H](CCCNC(=N)N)C(=O)N[C@H](C(=O)N[C@@H](CCCCN)C(=O)N[C@H](C(=O)N[C@@H](CC(C)C)C(=O)N[C@@H](CC(C)C)C(N)=O)[C@@H](C)O)[C@@H](C)CC)C(C)C)C(C)C` [ug46] (Ac-QAGIVVPLGLGLLKRIKTLL-NH2) as the molecule, how does the “Minimum inhibitory concentration of microorganisms (MIC) S. aureus PCM 2602” value [1] read?
Answer: 100 µg/mL

Question: Which results are given for “CPLGLYGFGG [ug4, engineered pro-regenerative peptide]”?
Answer: proliferation ([2]; any ug1/ug4 peptide concentration (none lower)): ≥ 70%; proliferation ([2]; most concentrations of ug1/ug4 peptide): above 100%
